Values joined by “and” are separate entries in the source; they are usually repeats but may differ in a detail not shown here. Equal values may be shown once. Read-outs that look alike come from different tables or passages of the source.
Legend:
[1] = biological target: T1, HIV-1 protease (wild-type, WT) (Human immunodeficiency virus type 1 group M subtype B, UniProt P04585); experiment: Inhibition of purified wild-type HIV-1 protease (fluorogenic substrate cleavage), Ki and % inhibition; format: biochemical; conditions: for Ki: read-out: Ki
T1 construct: purified HIV-1 protease (wild-type, WT)
Protocol: The inhibition constants (Ki) for the compounds of the above examples were determined using purified HIV-1 protease (wild-type, WT) (Tables I, II, IV and V) and R8Q and V82I mutant HIV-1 proteases (Table III). Ki is an inhibition constant of a given compound as derived by enzyme kinetics. A low Ki represents a high affinity of the compound for the enzyme, i.e., tight binding or low dissociation. Inhibition of the cleavage was assayed using a fluorogenic substrate available from Molecular Probes, Inc., Eugene, Oreg., and described in Kageyama et al., Antimicrob. Agents. Chemother., 37, 272 (1993), and a fluorogenic substrate available from Bachem California, Torrance, Calif., and described in Kageyama et al. (1993), supra. The inhibitory potencies of these compounds are set forth in Tables I-V. Percent inhibition is the percentage inhibition of an enzyme's activity by a given compound at a given concentration.

[2] = Fluorescence of compounds; format: physicochemical
Description: The determination of which compounds of the present invention fluoresce can be done in accordance with methods well-known to those of ordinary skill in the art. Such fluorescence can be used to assay for antiviral activity of newly discovered compounds. For example, a fluorescent compound of the present invention can be used as a standard in an antiviral activity assay. The fluorescence of the compound can be measured in the absence and presence of a viral enzyme, such as a retroviral enzyme, in particular a retroviral protease, e.g., an HIV protease, in vitro. A test compound can then be added to the test system comprising the fluorescent compound and the enzyme. The decreased fluorescence of the fluorescent compound of the present invention in the absence and presence of the test compound can be measured and quantitated as a measure of the antiviral activity of the test compound.

[3] = tested on: HIV-1; experiment: Anti-retroviral activity in CEM cells chronically infected with HIV-1 (soluble formazan assay); format: cell-based; conditions: Human immunodeficiency virus 1, CCRF-CEM, 50% inhibition of viral activity
Protocol: The concentration of compound that inhibits 50% of viral activity (EC50 ; determined as described in Weislow et al. (1989), supra) and the inhibition constant (Ki, as defined in Example 7) for the compound were determined.

[4] = tested on: CEM cells; experiment: Toxicity of DD-5; format: cell-based; conditions: even at doses as high as 10^-4 M
[5] = tested on: p24 synthesis; experiment: Suppression of p24 synthesis; format: cell-based, HIV-1; conditions: Human immunodeficiency virus 1; read-out: concentrations suppressing p24 synthesis
[6] = tested on: viral activity; conditions: comparison compounds in clinical trials; cited from earlier work

Compound	Ki ([1]; Table IV) [nM]	Ki [1]	fluorescence [2]	EC50 [3] [nM]	EC50 [6] [nM]	other results
O=C(Nc1ccccc1C(=O)N[C@@H](Cc1ccccc1)[C@H](O)[C@H](O)[C@H](Cc1ccccc1)NC(=O)c1ccccc1NC(=O)OCc1ccccc1)OCc1ccccc1 [Compound 27]	2.4	2.4 nM	good fluorescence	–	–	relative potency vs compound 26 ([1]; more potent than compound 26): 20 times
O=C(Nc1ccccc1C(=O)N[C@@H](Cc1ccccc1)[C@H](O)[C@H](O)[C@H](Cc1ccccc1)NC(=O)c1ccccc1NC(=O)OCc1ccccn1)OCc1ccccn1 [Compound 34]	0.06	0.061 nM and 0.064 nM	good fluorescence	3.2	–	–
O=C(Nc1ccccc1C(=O)N[C@@H](Cc1ccccc1)C[C@H](O)[C@H](Cc1ccccc1)NC(=O)c1ccccc1NC(=O)OCc1ccccn1)OCc1ccccn1 [Compound 36]	–	–	–	2.4	–	toxicity [4]: no toxicity; minimal effective concentration [5]: ≥ 0.01 µM
CSC[C@H](NC(=O)COc1cccc2cnccc12)C(=O)N[C@@H](Cc1ccccc1)[C@H](O)C(=O)N1CSC[C@H]1C(=O)NC(C)(C)C [KNI272]	–	–	–	–	4.2	–
CC(C)(C)NC(=O)[C@@H]1C[C@@H]2CCCC[C@@H]2CN1C[C@@H](O)[C@H](Cc1ccccc1)NC(=O)[C@H](CC(N)=O)NC(=O)c1ccc2ccccc2n1 [Ro31-8959]	–	–	–	–	10	–

Source: US6066656A, “2,5-diamino-3,4-disubstituted-1,6-diphenylhexane isosteres comprising benzamide, sulfonamide and anthranilamide subunits and methods of using same” (The United States of America as represented by the …, priority 1998, dated 2000)
